{"source": "patent US9532970B2", "about": "“Compositions for anti-inflammatory, antioxidant effects and improved respiratory function by specific histone deacetylase inhibition” (priority 2014, dated 2017)", "key": {"[1]": {"tested_on": "H9c2 cells", "details": "pre-treated with 10, 15 and 30 μM for 24 hours prior to 1 μM doxorubicin"}, "[2]": {"tested_on": "peripheral blood mononuclear cells (PBMC)"}, "[3]": {"target": "HDAC-7 (Homo sapiens, UniProt Q8WUI4)", "sequence (Q8WUI4 whole entry)": "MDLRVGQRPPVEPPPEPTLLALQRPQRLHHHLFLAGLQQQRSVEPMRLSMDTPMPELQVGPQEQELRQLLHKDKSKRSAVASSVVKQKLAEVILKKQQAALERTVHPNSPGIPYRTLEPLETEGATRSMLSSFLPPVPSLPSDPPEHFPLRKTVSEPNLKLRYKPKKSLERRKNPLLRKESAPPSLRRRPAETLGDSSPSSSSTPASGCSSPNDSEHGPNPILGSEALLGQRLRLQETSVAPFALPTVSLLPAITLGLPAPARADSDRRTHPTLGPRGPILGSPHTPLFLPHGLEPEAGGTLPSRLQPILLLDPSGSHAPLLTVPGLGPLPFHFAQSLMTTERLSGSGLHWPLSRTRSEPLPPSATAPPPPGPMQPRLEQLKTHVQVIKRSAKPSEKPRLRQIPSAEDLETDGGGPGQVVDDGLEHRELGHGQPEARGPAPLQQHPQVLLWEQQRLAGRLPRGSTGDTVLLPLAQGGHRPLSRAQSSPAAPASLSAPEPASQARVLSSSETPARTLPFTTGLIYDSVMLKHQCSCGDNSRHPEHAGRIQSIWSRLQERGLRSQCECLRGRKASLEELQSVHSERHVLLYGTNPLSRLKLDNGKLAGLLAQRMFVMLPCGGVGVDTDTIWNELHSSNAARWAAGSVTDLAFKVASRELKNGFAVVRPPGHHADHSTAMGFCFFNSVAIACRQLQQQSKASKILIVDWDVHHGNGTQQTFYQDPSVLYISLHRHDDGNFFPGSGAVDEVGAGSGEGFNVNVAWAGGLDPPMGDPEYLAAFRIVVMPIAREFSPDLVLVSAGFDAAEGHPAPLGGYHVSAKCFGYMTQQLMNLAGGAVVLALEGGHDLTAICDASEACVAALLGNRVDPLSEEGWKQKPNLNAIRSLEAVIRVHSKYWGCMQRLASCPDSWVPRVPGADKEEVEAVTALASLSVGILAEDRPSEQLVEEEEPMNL", "assay": "Binding to metal dependent histone deacetylase enzymes (epigenetic assay services)"}, "[4]": {"target": "T1, HDAC8 (Homo sapiens, UniProt Q9BY41)", "assay": "biochemical"}, "[5]": {"tested_on": "naphthalene-induced airway epithelial damage", "details": "5 mg/kg ip"}, "[6]": {"target": "T2, HDAC-6 (Homo sapiens, UniProt Q9UBN7)", "T2 sequence (Q9UBN7 1-1215)": "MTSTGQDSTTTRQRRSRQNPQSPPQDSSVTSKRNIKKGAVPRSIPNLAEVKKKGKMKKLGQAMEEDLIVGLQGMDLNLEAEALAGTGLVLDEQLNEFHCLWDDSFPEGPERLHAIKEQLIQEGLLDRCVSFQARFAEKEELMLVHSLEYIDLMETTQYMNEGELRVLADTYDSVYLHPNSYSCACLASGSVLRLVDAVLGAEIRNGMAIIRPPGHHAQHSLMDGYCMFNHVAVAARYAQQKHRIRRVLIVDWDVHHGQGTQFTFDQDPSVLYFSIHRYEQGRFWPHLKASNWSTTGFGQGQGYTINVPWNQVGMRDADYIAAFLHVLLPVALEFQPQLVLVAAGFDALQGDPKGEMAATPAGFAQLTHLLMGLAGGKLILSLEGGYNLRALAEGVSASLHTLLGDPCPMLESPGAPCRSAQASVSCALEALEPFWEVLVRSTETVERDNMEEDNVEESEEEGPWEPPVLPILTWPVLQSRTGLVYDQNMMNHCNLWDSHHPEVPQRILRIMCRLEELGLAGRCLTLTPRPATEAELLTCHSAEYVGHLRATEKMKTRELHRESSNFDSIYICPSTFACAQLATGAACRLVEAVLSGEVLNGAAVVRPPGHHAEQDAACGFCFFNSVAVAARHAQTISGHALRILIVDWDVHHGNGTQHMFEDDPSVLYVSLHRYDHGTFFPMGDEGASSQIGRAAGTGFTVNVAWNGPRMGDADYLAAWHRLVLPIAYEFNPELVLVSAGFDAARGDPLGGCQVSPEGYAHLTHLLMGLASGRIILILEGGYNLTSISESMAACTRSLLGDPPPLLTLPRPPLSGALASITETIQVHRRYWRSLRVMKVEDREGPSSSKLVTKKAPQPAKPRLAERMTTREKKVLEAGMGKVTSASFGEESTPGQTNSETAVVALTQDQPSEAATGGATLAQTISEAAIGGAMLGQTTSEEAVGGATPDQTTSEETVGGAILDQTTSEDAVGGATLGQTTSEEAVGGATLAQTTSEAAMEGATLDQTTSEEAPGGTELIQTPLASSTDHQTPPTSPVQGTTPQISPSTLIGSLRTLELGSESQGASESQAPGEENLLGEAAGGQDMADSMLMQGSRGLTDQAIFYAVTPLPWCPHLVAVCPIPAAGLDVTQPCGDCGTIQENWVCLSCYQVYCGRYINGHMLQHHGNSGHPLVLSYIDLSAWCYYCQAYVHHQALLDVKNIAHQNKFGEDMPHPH"}, "[7]": {"target": "T1, HDAC8", "details": "FIG. 2"}, "[8]": {"target": "T3, HDAC-3 (Homo sapiens, UniProt O15379)", "T3 sequence (O15379 whole entry, species assumed)": "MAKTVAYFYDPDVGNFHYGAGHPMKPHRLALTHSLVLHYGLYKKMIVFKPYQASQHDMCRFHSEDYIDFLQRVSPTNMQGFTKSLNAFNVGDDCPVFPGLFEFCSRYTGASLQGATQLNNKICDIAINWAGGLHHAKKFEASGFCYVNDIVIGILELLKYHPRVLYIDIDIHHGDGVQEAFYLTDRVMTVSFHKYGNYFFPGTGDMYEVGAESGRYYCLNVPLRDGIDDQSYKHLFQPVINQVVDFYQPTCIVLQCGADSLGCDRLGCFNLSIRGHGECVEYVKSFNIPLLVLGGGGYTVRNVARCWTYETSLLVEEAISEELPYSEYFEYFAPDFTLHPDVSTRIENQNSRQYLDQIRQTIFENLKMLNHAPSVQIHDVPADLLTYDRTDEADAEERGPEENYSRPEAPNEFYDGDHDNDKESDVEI", "T3 sequence (Q9Y618 395-489 partner limits assumed, species assumed)": "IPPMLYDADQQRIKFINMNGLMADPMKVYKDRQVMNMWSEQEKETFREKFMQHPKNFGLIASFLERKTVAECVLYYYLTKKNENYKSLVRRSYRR", "assay": "biochemical"}, "[9]": {"target": "T1, HDAC8"}, "[10]": {"tested_on": "Horse PBMC", "details": "for Log2 Fold Change: LSF vs control"}, "[11]": {"tested_on": "ovalbumin (OVA)-induced AAD"}, "[12]": {"target": "T3, HDAC-3"}, "[13]": {"target": "T2, HDAC-6", "assay": "biochemical"}, "[14]": {"details": "more subtle than Trichostatin A"}, "[15]": {"details": "three control vs three LSF treated samples"}, "[16]": {"details": "5 mg/kg intraperitoneally following each OVA nebulization, compared to ovalbumin-sensitized mice"}}, "note": "Like-named read-outs stand apart in the source and are kept apart here.", "data": [{"molecule": "C[S@@+]([O-])CCCCN=C=S", "note": "[LSF, (R)-1-Isothiocyanato-4-(methylsulfinyl)butane]", "values": [{"measurement": "doxorubicin-induced accumulation of γH2AX foci", "setting": "[1]", "result": "attenuates"}, {"measurement": "reduction in chemokines and cytokines relative to Trichostatin A (TSA), SAHA and sodium butyrate (NaB)", "setting": "[2]; 1 μM TSA, 10 μM SAHA, 10 mM NaB, 15 or 30 μM LSF", "result": "more pronounced effects"}, {"measurement": "levels of TNF-α, IL-1β, IL-6, IL-8, MIP-1β and IP-10 in supernatants", "setting": "[2]; 15 μM LSF or 30 μM LSF, FIG. 3", "result": "reduction"}, {"measurement": "HILLSLOPE", "setting": "[3]; HDAC-7", "result": "−0.41"}, {"measurement": "IC50", "setting": "[3]; HDAC-7", "result": 5.81, "unit": "mM"}, {"measurement": "binding to HDAC 7 (in words)", "setting": "[3]; [14]", "result": "specific binding"}, {"measurement": "IC50", "setting": "[4]", "result": 0.0827, "unit": "mM"}, {"measurement": "epithelial denudation", "setting": "[5]; 24 hours post-naphthalene, level analogous to dexamethasone 1 mg/kg", "result": "reduces"}, {"measurement": "lamina reticularis thickness", "setting": "[5]; 72 hours post-naphthalene, efficacy similar to dexamethasone", "result": "reduces"}, {"measurement": "HILLSLOPE", "setting": "[6]; HDAC-6", "result": "−0.88"}, {"measurement": "binding to HDAC 6 (in words)", "setting": "[6]; [14]", "result": "specific binding"}, {"measurement": "inhibition of the enzymatic activity of HDAC8", "setting": "[7]", "result": "inhibits"}, {"measurement": "specificity of inhibition, HDAC8 compared to HDAC1", "setting": "[7]; HDAC1 and HDAC8 inhibitor Screening Assay Kits", "result": "specificity of L-sulforaphane for HDAC8 compared to HDAC1"}, {"measurement": "IC50", "setting": "[8]", "result": 20.5, "unit": "mM"}, {"measurement": "binding to HDAC8 relative to the other HDACs", "setting": "[9]; FIG. 1", "result": "most pronounced"}, {"measurement": "HILLSLOPE", "setting": "[9]; HDAC-8", "result": "−0.88"}, {"measurement": "binding to HDAC 8 (in words)", "setting": "[9]; [14]", "result": "specific binding"}, {"measurement": "Log2 Fold Change", "setting": "[10]; gene ABCA1", "result": "−4.37"}, {"measurement": "Log2 Fold Change", "setting": "[10]; gene APOBEC3Z1B", "result": "−3.67"}, {"measurement": "Log2 Fold Change", "setting": "[10]; gene ASPH", "result": 1.93}, {"measurement": "Log2 Fold Change", "setting": "[10]; gene C2", "result": "−2.13"}, {"measurement": "Log2 Fold Change", "setting": "[10]; gene CD180", "result": "−2.97"}, {"measurement": "Log2 Fold Change", "setting": "[10]; gene CMKLR1", "result": "−3.79"}, {"measurement": "Log2 Fold Change", "setting": "[10]; gene CSF3R", "result": "−3.76"}, {"measurement": "Log2 Fold Change", "setting": "[10]; gene CXCL9", "result": "−2.55"}, {"measurement": "Log2 Fold Change", "setting": "[10]; gene CYP1B1", "result": "−3.83"}, {"measurement": "Log2 Fold Change", "setting": "[10]; gene DENND2A", "result": 3.67}, {"measurement": "Log2 Fold Change", "setting": "[10]; gene FRMPD4", "result": "−3.80"}, {"measurement": "Log2 Fold Change", "setting": "[10]; gene FTL", "result": 1.51}, {"measurement": "Log2 Fold Change", "setting": "[10]; gene GSAP", "result": 2.00}, {"measurement": "Log2 Fold Change", "setting": "[10]; gene IL8", "result": 3.54}, {"measurement": "Log2 Fold Change", "setting": "[10]; gene KCNJ2", "result": 2.06}, {"measurement": "Log2 Fold Change", "setting": "[10]; gene MAFB", "result": "−2.66"}, {"measurement": "Log2 Fold Change", "setting": "[10]; gene ME1", "result": 1.47}, {"measurement": "Log2 Fold Change", "setting": "[10]; gene MN-SOD", "result": 1.93}, {"measurement": "Log2 Fold Change", "setting": "[10]; gene NR1H3", "result": "−2.56"}, {"measurement": "Log2 Fold Change", "setting": "[10]; gene OSGIN2", "result": 1.88}, {"measurement": "Log2 Fold Change", "setting": "[10]; gene PLEKHA4", "result": "−3.60"}, {"measurement": "Log2 Fold Change", "setting": "[10]; gene PTPN12", "result": 1.43}, {"measurement": "Log2 Fold Change", "setting": "[10]; gene RIPK2", "result": 2.01}, {"measurement": "Log2 Fold Change", "setting": "[10]; gene RNASE6", "result": "−2.45"}, {"measurement": "Log2 Fold Change", "setting": "[10]; gene SERPINB2", "result": "−4.65"}, {"measurement": "Log2 Fold Change", "setting": "[10]; gene SLAMF8", "result": "−2.75"}, {"measurement": "Log2 Fold Change", "setting": "[10]; gene SLC7A8", "result": "−3.35"}, {"measurement": "Log2 Fold Change", "setting": "[10]; gene SLC7A11", "result": 2.34}, {"measurement": "Log2 Fold Change", "setting": "[10]; gene SLC37A2", "result": "−2.72"}, {"measurement": "Log2 Fold Change", "setting": "[10]; gene SORCS1", "result": "−2.71"}, {"measurement": "Log2 Fold Change", "setting": "[10]; gene STAC2", "result": 3.38}, {"measurement": "Log2 Fold Change", "setting": "[10]; gene STXBP5", "result": 1.57}, {"measurement": "Log2 Fold Change", "setting": "[10]; gene TGM2", "result": "−3.99"}, {"measurement": "Log2 Fold Change", "setting": "[10]; gene TNFSF15", "result": 2.40}, {"measurement": "Log2 Fold Change", "setting": "[10]; gene TNS3", "result": "−3.09"}, {"measurement": "Log2 Fold Change", "setting": "[10]; gene TUBA4A", "result": 1.30}, {"measurement": "Log2 Fold Change", "setting": "[10]; gene TXN", "result": 1.87}, {"measurement": "Log2 Fold Change", "setting": "[10]; gene TXNRD1", "result": 2.13}, {"measurement": "Log2 Fold Change", "setting": "[10]; gene WDR59", "result": 2.19}, {"measurement": "Log2 Fold Change", "setting": "[10]; gene ZFAND2A", "result": 2.22}, {"measurement": "differentially expressed genes (number)", "setting": "[10]; [15]", "result": 5951}, {"measurement": "down-regulated genes (number)", "setting": "[10]; [15]", "result": 3012}, {"measurement": "up-regulated genes (number)", "setting": "[10]; [15]", "result": 2939}, {"measurement": "airway wall thickness", "setting": "[11]; [16]", "result": "reductions"}, {"measurement": "goblet cell hyperplasia", "setting": "[11]; [16]", "result": "reductions"}, {"measurement": "inflammation", "setting": "[11]; [16]", "result": "reductions"}, {"measurement": "Annexin V staining (apoptosis) in lung tissue", "setting": "[11]; OVA-LSF 5 mg/kg, strong staining in OVA-VEH", "result": "Weak"}, {"measurement": "HILLSLOPE", "setting": "[12]; HDAC-3", "result": "−0.20"}, {"measurement": "binding to HDAC 3 (in words)", "setting": "[12]; [14]", "result": "specific binding"}, {"measurement": "IC50", "setting": "[13]", "result": 1.02, "unit": "mM"}]}]}
